These results are taken from patent US7939534B2, “Certain chemical entities, compositions, and methods” (Cytokinetics, Inc., priority 2006, dated 2011).

The experiment concerns the target T1, chicken gizzard smooth muscle myosin subfragment-1 chemically crosslinked to either cardiac or skeletal actin (Gallus gallus, UniProt P10587).
T1 construct: chicken gizzard smooth muscle myosin subfragment-1; from tissue; host or cells: chicken gizzard
The experiment can be described thus: Dose dependent smooth muscle myosin ATPase modulation (pyruvate kinase/horseradish peroxidase/pyruvate oxidase-coupled ATPase assay). The experiment is classed as biochemical. As to conditions: read-out: IC50 Arithmetic Mean. As to the method:
In Vitro Model of Dose Dependent Smooth Muscle Myosin Atpase Modulation
Screening assays were performed using a pyruvate kinase and lactate dehydrogenase-coupled ATPase assay containing the following reagents: Potassium PIPES (50 mM ), MgCl2 (3 mM ), KCl (100 mM ), ATP (0.15 mM ), DTT (1 mM ), BSA (0.1 mg/ml), NADH (0.5 mM ), PEP (1.5 mM ), pyruvate kinase (4 U/ml), lactate dehydrogenase (8 U/ml), and antifoam (50 ppm) (concentrations expressed are final assay concentrations). The pH was adjusted to 6.80 at 22° C. by addition of potassium hydroxide. Lead optimization assays were performed with a more sensitive pyruvate kinase/horseradish peroxidase/pyruvate oxidase-coupled ATPase assay containing the following reagents: Potassium PIPES (12 mM ), MgCl2 (2 mM ), KCl (100 mM ), ATP (0.15 mM ), BSA (0.05 mg/ml), potassium phosphate (2 mM ), amplex red (0.1 mM ), PEP (0.1 mM ), pyruvate kinase (4 U/ml), horseradish peroxidase (0.5 U/ml), pyruvate oxidase (0.5 U/ml), and antifoam (50 ppm) (concentrations expressed are final assay concentrations). The pH was adjusted to 7.00 at 22° C. by addition of potassium hydroxide.
The protein components specific to this assay are chicken gizzard smooth muscle myosin subfragment-1 that has been chemically crosslinked to either cardiac or skeletal actin using an excess of 1-Ethyl-3-[3-dimethylaminopropyl]carbodiimide hydrochloride and N-hydroxysuccinimide. The exact concentration of the crosslinked smooth muscle myosin in the assay is determined empirically, by titration to achieve a desired rate of ATP hydrolysis. The concentration varies between protein preparations due to variations in the fraction of active molecules in each preparation.
Compound dose response assays are performed by first preparing a dilution series of test compound, each with an assay mixture containing potassium PIPES, MgCl2, KCl, ATP, BSA, potassium phosphate, amplex red, PEP, crosslinked smooth muscle actomyosin (subfragment-1), antifoam, and water. The assay is started by adding an equal volume of solution containing potassium Pipes, MgCl2, KCl, BSA, potassium phosphate, pyruvate kinase, horseradish peroxidase, pyruvate oxidase, antifoam, and water. ATP hydrolysis is monitored by measuring the fluorescence of amplex red (excitation at 480 nm, emission at 615 nm). The resulting dose response curve is fit by the 4 parameter equation y=Bottom+((Top−Bottom)/(1+((IC50/X)^Hill))). The IC50 is defined as the concentration at which ATPase activity is midway between the top and bottom of the dose response curve.

Where “and” joins values, the source holds several entries; their conditions need not be identical. Equal values may be shown once.

With `CNC(=O)CNC(=O)c1ccc(N2CCC(F)C2)nc1NCCc1cccc(F)c1` (stereo in doubt) [Compound 93, 2-[(6-((3S)-3-fluoropyrrolidinyl)-2-{[2-(3-fluorophenyl)ethyl]amino}(3-pyridyl))carbonylamino]-N-methylacetamide], the IC50 turned out to be 1.06 µM. In the case of `O=C(NCc1cccnc1)c1ccc(N2CCCC(O)C2)nc1NCCc1cccc(F)c1` (stereo in doubt) [Compound 117, (6-((3S)-3-hydroxypiperidyl)-2-{[2-(3-fluorophenyl)ethyl]amino}(3-pyridyl))-N-(3-pyridylmethyl)carboxamide], the IC50 was determined as 0.515 µM. Then `CNC(=O)CNC(=O)c1ccc(N2CC[C@@H](O)C2)nc1NCCc1cccc(F)c1` [2-[(6-((3R)-3-hydroxypyrrolidinyl)-2-{[2-(3-fluorophenyl)ethyl]amino}(3-pyridyl))carbonylamino]-N-methylacetamide], with 3.44 µM and 3.69 µM.

Regarding `O=C(NCc1cccnc1)c1ccc(N2CCCCC2)nc1NCCc1cccc(F)c1` [Compound 0, (2-{[2-(3-fluorophenyl)ethyl]amino}-6-piperidyl(3-pyridyl))-N-(3-pyridylmethyl)carboxamide], the IC50 worked out at 0.371 µM. On to `CC(=O)NC[C@@H]1CCN(c2ccc(C(=O)NCc3cccnc3)c(NCCc3cccc(F)c3)n2)C1` [Compound 1, N-{[(3S)-1-(6-{[2-(3-fluorophenyl)ethyl]amino}-5-[N-(3-pyridylmethyl)carbamoyl](2-pyridyl))pyrrolidin-3-yl]methyl}acetamide], for which the 50% inhibitory concentration (IC50) worked out at 3.77 µM. With `NC(=O)CNC(=O)c1ccc(N2CC[C@@H](O)C2)nc1NCCc1cccc(F)c1` [Compound 2, (6-((3R)-3-hydroxypyrrolidinyl)-2-{[2-(3-fluorophenyl)ethyl]amino}(3-pyridyl))-N-(carbamoylmethyl)carboxamide], the half-inhibitory concentration (IC50) amounted to 11.4 µM. Turning to `CN(C)C(=O)c1ccc(N2CC[C@@H](O)C2)nc1NCCc1cccc(F)c1` [Compound 4, (6-((3R)-3-hydroxypyrrolidinyl)-2-{[2-(3-fluorophenyl)ethyl]amino}(3-pyridyl))-N,N-dimethylcarboxamide], the half-maximal inhibitory concentration (IC50) was determined as 71.3 µM. With `NC(=O)CNC(=O)c1ccc(N2CCCC2)nc1NCCc1cccc(F)c1` [Compound 5, N-(carbamoylmethyl)(2-{[2-(3-fluorophenyl)ethyl]amino}-6-pyrrolidinyl(3-pyridyl))carboxamide], the IC50 stood at 1.46 µM.

Turning to `O=C(NCc1cccnc1)c1ccc(N2CC[C@@H](CO)C2)nc1NCCc1cccc(F)c1` [Compound 6, (6-[(3R)-3-(hydroxymethyl)pyrrolidinyl]-2-{[2-(3-fluorophenyl)ethyl]amino}(3-pyridyl))-N-(3-pyridylmethyl)carboxamide], the 50% inhibitory concentration (IC50) came out at 0.311 µM.

For `CNC[C@@H]1CCN(c2ccc(C(=O)NCc3cccnc3)c(NCCc3cccc(F)c3)n2)C1` [Compound 7, (6-{(3S)-3-[(methylamino)methyl]pyrrolidinyl}-2-{[2-(3-fluorophenyl)ethyl]amino}(3-pyridyl))-N-(3-pyridylmethyl)carboxamide], the IC50 came to 64.8 µM. For `CC(=O)N(C)C[C@@H]1CCN(c2ccc(C(=O)NCc3cccnc3)c(NCCc3cccc(F)c3)n2)C1` [Compound 8, N-{[(3R)-1-(6-{[2-(3-fluorophenyl)ethyl]amino}-5-[N-(3-pyridylmethyl)carbamoyl](2-pyridyl))pyrrolidin-3-yl]methyl}-N-methylacetamide], the IC50 stood at 47.6 µM. For `CN(C)C[C@@H]1CCN(c2ccc(C(=O)NCc3cccnc3)c(NCCc3cccc(F)c3)n2)C1` [Compound 9, (6-{(3S)-3-[(dimethylamino)methyl]pyrrolidinyl}-2-{[2-(3-fluorophenyl)ethyl]amino}(3-pyridyl))-N-(3-pyridylmethyl)carboxamide], the concentration for half-maximal inhibition (IC50) was determined as 75.1 µM. In the case of `O=C(NCc1cccnc1)c1ccc(N2CCCCC2=O)nc1NCCc1cccc(F)c1` [Compound 10, (2-{[2-(3-fluorophenyl)ethyl]amino}-6-(2-oxopiperidyl)(3-pyridyl))-N-(3-pyridylmethyl)carboxamide], the IC50 was determined as 5.4 µM. Then `NC[C@@H]1CCN(c2ccc(C(=O)NCc3cccnc3)c(NCCc3cccc(F)c3)n2)C1` [Compound 11, (6-[(3S)-3-(aminomethyl)pyrrolidinyl]-2-{[2-(3-fluorophenyl)ethyl]amino}(3-pyridyl))-N-(3-pyridylmethyl)carboxamide], with 16.9 µM.

Turning to `Nc1ccc(CNC(=O)c2ccc(N3CCCC3)nc2NCCc2cccc(F)c2)cn1` [Compound 12, N-[(6-amino(3-pyridyl))methyl](2-{[2-(3-fluorophenyl)ethyl]amino}-6-pyrrolidinyl(3-pyridyl))carboxamide], the IC50 came to 0.243 µM. The figure for `NC(=O)CCNC(=O)c1ccc(N2CCCC2)nc1NCCc1cccc(F)c1` [Compound 13, N-(2-carbamoylethyl)(2-{[2-(3-fluorophenyl)ethyl]amino}-6-pyrrolidinyl(3-pyridyl))carboxamide] is 1.59 µM; for `O=C(NCc1cccnc1)c1ccc(N2CC[C@@H](O)C2)nc1NCCc1cccc(F)c1` [Compound 14, (6-((3R)-3-hydroxypyrrolidinyl)-2-{[2-(3-fluorophenyl)ethyl]amino}(3-pyridyl))-N-(3-pyridylmethyl)carboxamide] it is 0.533 µM; for `O=C(NCc1cccnc1)c1ccc(N2CCCC2=O)nc1NCCc1cccc(F)c1` [Compound 15, (2-{[2-(3-fluorophenyl)ethyl]amino}-6-(2-oxopyrrolidinyl)(3-pyridyl))-N-(3-pyridylmethyl)carboxamide] it is 4.56 µM.

On to `O=C(NCc1cccnc1)c1ccc(N2CCCC2)nc1NCCc1cccc(F)c1` [Compound 16, (2-{[2-(3-fluorophenyl)ethyl]amino}-6-pyrrolidinyl(3-pyridyl))-N-(3-pyridylmethyl)carboxamide], for which the IC50 is 0.131 µM. Turning to `NC(=O)CCNC(=O)c1ccc(N2CC[C@@H](O)C2)nc1NCCc1cccc(F)c1` [Compound 17, (6-((3R)-3-hydroxypyrrolidinyl)-2-{[2-(3-fluorophenyl)ethyl]amino}(3-pyridyl))-N-(2-carbamoylethyl)carboxamide], the IC50 is 15.9 µM.

Consider `O=C(NCc1cccnc1)c1ccc(N2CC[C@H](O)C2)nc1NCCc1cccc(F)c1` [Compound 18, (6-((3S)-3-hydroxypyrrolidinyl)-2-{[2-(3-fluorophenyl)ethyl]amino}(3-pyridyl))-N-(3-pyridylmethyl)carboxamide], for which the concentration for half-maximal inhibition (IC50) turned out to be 1.02 µM. Regarding `O=C(NCc1cccnc1)c1ccc(N2CCC(CO)CC2)nc1NCCc1cccc(F)c1` [Compound 19, (2-{[2-(3-fluorophenyl)ethyl]amino}-6-[4-(hydroxymethyl)piperidyl](3-pyridyl))-N-(3-pyridylmethyl)carboxamide], the IC50 was found to be 0.382 µM.

With `O=C(NCc1cccnc1)c1ccc(N2CC(O)CCC2=O)nc1NCCc1cccc(F)c1` (stereo not drawn) [Compound 20, (2-{[2-(3-fluorophenyl)ethyl]amino}-6-(5-hydroxy-2-oxopiperidyl)(3-pyridyl))-N-(3-pyridylmethyl)carboxamide], the IC50 came out at 29.7 µM. `O=C1CN(c2ccc(C(=O)NCc3cccnc3)c(NCCc3cccc(F)c3)n2)CCN1` [Compound 21, (2-{[2-(3-fluorophenyl)ethyl]amino}-6-(3-oxopiperazinyl)(3-pyridyl))-N-(3-pyridylmethyl)carboxamide]: the IC50 was found to be 6.97 µM.

Consider `CN1CCN(c2ccc(C(=O)NCc3cccnc3)c(NCCc3cccc(F)c3)n2)CC1` [Compound 22, (2-{[2-(3-fluorophenyl)ethyl]amino}-6-(4-methylpiperazinyl)(3-pyridyl))-N-(3-pyridylmethyl)carboxamide], for which the half-inhibitory concentration (IC50) came to 59.9 µM. On to `O=C(NCc1cccnc1)c1ccc(N2CCC(CCO)CC2)nc1NCCc1cccc(F)c1` [Compound 23, (2-{[2-(3-fluorophenyl)ethyl]amino}-6-[4-(2-hydroxyethyl)piperidyl](3-pyridyl))-N-(3-pyridylmethyl)carboxamide], for which the half-maximal inhibitory concentration (IC50) was 0.471 µM. The figure for `CC(C)(C)OC(=O)N1CCN(c2ccc(C(=O)NCc3cccnc3)c(NCCc3cccc(F)c3)n2)C(=O)C1` [Compound 24, tert-butyl 4-(6-{[2-(3-fluorophenyl)ethyl]amino}-5-[N-(3-pyridylmethyl)carbamoyl](2-pyridyl))-3-oxopiperazinecarboxylate] is 59.8 µM.
